The nature of experiment [1]: Binding affinity to human FKBP F36V mutant.
A short description of experiment [2]: Binding affinity to human FKBP F36V/L106P mutant-YFP fusion protein expressed in NIH3T3 cells after 24 hrs. It counts as cell-based.

Each structure is given as a SMILES string.

Usually Kd stands for the free concentration of one partner at which half of the binding sites on the other are occupied at equilibrium, for simple one-to-one binding. Low values mean higher affinity, high ones lower affinity. By EC50 is commonly meant the midpoint of the concentration-response curve. Read a low EC50 as greater potency. For `CC[C@H](C(=O)N1CCCC[C@H]1C(=O)O[C@H](CCc1ccc(OC)c(OC)c1)c1cccc(OCCN2CCOCC2)c1)c1cc(OC)c(OC)c(OC)c1`, the Kd in experiment [1] worked out at 2.4 nM. The same compound gave an EC50 in experiment [2] of 100 nM.

`CCC(CC)NC(=O)N1CCCC[C@H]1C(=O)O[C@H](CCc1ccc(OC)c(OC)c1)c1cccc(OCCN2CCOCC2)c1` came in with a Kd in experiment [1] of 29 nM. In experiment [2], this compound had an EC50 of 1200 nM.

Values taken from ChEMBL document CHEMBL1143178, “Synthesis and analysis of stabilizing ligands for FKBP-derived destabilizing domains” (Bioorg Med Chem Lett, 2008).
